Reference: patent publication US7119062B1, “Methods and compositions for improved articular surgery using collagen” (Neucoll, Inc., priority 2001, dated 2006)
Where two headings read alike, the source gives them in different places.

How the values were obtained:
mice = conditions: cited from earlier work
[1] = cited from earlier work
[2] = cited from earlier work; remark: listed apart in the source
research monkeys = conditions: cited from earlier work
[3] = adults; cited from earlier work
[4] = standard mutagenicity and clastogenicity assays; cited from earlier work
[5] = Anesthetic effect of lidocaine in intra-articular collagen injections; assay type: in vivo; conditions: 1 mL intra-articular injections of collagen formulation with 0.3% lidocaine
[6] = in vivo

CCCCN1CCCCC1C(=O)Nc1c(C)cccc1C (stereo not shown) [bupivacaine]
LD50 (mice; intravenous): 6 to 8 mg/kg
LD50 (mice; subcutaneous): 38 to 54 mg/kg
change in VAS pain scores at 1 hour ([1]; 12.5 mg intra-articular, knees of osteoarthritis patients, 1 hour post-administration): statistically significant (p=0.007) fall
effect on VAS pain scores after 1 hour ([1]; 12.5 mg intra-articular, knees of osteoarthritis patients, after 1 hour): no significant effects
duration of analgesia ([1]; intra-articular injection): 2 to 12 h
intra-articular dose that produces analgesia of the joint ([1]; intra-articular): approximately 10 mg
duration of pain relief ([1]; local anesthetic injected into the operated joint at the end of arthroscopy): about 6 hours
maximum dose ([2]; over a 24 hour period): 400 mg
therapeutic apparently safe dose ([2]; single bolus): approximately 225 mg
single dose that produced seizures (research monkeys): 4.4 mg/kg
half life [3]: approximately 3.5 hours

CCCCN1CCCC[C@H]1C(=O)Nc1c(C)cccc1C [levobupivacaine]
genotoxicity [4]: non-genotoxic

CCN(CC)CC(=O)Nc1c(C)cccc1C [lidocaine]
dosage required to achieve the same clinical efficacy as bupivacaine ([1]; equivalent indications, relative to bupivacaine): 2 to 10 times
duration of anesthetic effects of lidocaine [5]: less than an hour
duration of anesthetic effects of lidocaine, in most cases ([5]; in most cases): less than 10 minutes

collagen
time collagen remains in the knee joints [6]: up to 8 weeks
